Source: US7792665B2, “Method for designing a compound based on the three dimensional structure of phosphoinositide dependent protein kinase 1 (PDK1)” (Medical Research Council, priority 2002, dated 2010)
Values joined by “and” are separate entries in the source; they are usually repeats but may differ in a detail not shown here. Identical values can stand only once. Where no end group is shown, it is not given here. [ ]: non-standard residue; d: D form. pT = C[C@@H](OP(=O)(O)O)[C@H](N)C(=O)O

Assays:
[1] = target: T1, PDK1 (Homo sapiens, UniProt O15530); test: PDK1 protein kinase assay with PDK1tide substrate and [γ-32P]ATP; assay type: biochemical; settings: 1 μM inhibitor, 0.1 mM ATP, average of triplicate
T1 sequence (O15530 1-556): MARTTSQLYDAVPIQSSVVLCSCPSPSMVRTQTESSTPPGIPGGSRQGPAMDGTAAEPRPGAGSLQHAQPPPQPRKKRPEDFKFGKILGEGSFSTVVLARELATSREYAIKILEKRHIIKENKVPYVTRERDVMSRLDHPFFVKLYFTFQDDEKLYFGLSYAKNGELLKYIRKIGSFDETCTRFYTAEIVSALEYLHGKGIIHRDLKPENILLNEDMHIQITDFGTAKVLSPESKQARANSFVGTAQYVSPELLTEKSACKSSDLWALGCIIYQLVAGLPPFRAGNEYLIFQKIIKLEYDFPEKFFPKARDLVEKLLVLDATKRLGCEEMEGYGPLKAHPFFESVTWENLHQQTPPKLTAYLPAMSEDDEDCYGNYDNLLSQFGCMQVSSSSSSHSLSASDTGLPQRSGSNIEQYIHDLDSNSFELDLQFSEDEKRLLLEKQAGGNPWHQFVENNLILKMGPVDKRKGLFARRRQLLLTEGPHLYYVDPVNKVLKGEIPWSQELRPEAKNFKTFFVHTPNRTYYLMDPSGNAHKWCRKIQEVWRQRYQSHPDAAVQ
Method: (§1) Other protein kinases employed in Table 5, were assayed as described previously.
A structure-based sequence alignment of known kinase structures was obtained from, which was used to validate the sequence-based sequence alignment (Table 5).

[2] = target: T2, CHK1 (Homo sapiens, UniProt O14757); test: Kinase panel assay, CHK1; assay type: biochemical; settings: 1 μM inhibitor, 0.1 mM ATP, average of triplicate
T2 sequence (O14757 1-476): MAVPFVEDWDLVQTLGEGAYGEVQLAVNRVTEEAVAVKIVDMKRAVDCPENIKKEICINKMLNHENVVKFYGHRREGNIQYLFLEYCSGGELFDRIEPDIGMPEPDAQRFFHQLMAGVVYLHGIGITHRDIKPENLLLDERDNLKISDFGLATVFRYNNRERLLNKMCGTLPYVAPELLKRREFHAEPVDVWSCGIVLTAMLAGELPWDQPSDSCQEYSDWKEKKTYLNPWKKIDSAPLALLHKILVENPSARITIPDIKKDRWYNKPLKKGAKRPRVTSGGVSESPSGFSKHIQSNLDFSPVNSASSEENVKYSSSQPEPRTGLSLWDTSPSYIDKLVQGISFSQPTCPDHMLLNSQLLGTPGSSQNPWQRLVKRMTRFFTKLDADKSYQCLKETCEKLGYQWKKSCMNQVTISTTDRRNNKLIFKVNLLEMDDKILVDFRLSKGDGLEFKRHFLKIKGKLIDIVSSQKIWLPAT

[3] = target: PKCα (Homo sapiens, UniProt P17252); test: Kinase panel assay, PKCα; assay type: biochemical; settings: 1 μM inhibitor, 0.1 mM ATP, average of triplicate
[4] = system: AMPK; test: Kinase panel assay, AMPK; assay type: biochemical; settings: 1 μM inhibitor, 0.1 mM ATP, average of triplicate
Method: as §1

[5] = target: PHOS.KINASE (Oryctolagus cuniculus, UniProt P00518); test: Kinase panel assay, phosphorylase kinase; assay type: biochemical; settings: 1 μM inhibitor, 0.1 mM ATP, average of triplicate
[6] = target: Lck (Homo sapiens, UniProt P06239); test: Kinase panel assay, Lck; assay type: biochemical; settings: 1 μM inhibitor, 0.1 mM ATP, average of triplicate
[7] = target: PKBΔPH (Homo sapiens, UniProt P31749); test: biochemical; settings: read-out: percentage of kinase activity compared to control incubations, PKBΔPH
Method: as §1

[8] = target: ROCK-II (Homo sapiens, UniProt O75116); test: Kinase panel assay, ROCK-II; assay type: biochemical; settings: 1 μM inhibitor, 0.1 mM ATP, average of triplicate
[9] = target: S6K1 (Homo sapiens, UniProt P23443); test: Kinase panel assay, S6K1; assay type: biochemical; settings: 1 μM inhibitor, 0.1 mM ATP, average of triplicate
[10] = target: GSK3β (Homo sapiens, UniProt P49841); test: Kinase panel assay, GSK3β; assay type: biochemical; settings: 1 μM inhibitor, 0.1 mM ATP, average of triplicate
[11] = target: MSK1 (Homo sapiens, UniProt O75582); test: Kinase panel assay, MSK1; assay type: biochemical; settings: 1 μM inhibitor, 0.1 mM ATP, average of triplicate
[12] = target: DYRK1α (Homo sapiens, UniProt Q13627); test: Kinase panel assay, DYRK1α; assay type: biochemical; settings: 1 μM inhibitor, 0.1 mM ATP, average of triplicate
[13] = target: PKA (Homo sapiens, UniProt P17612); test: Kinase panel assay, PKA; assay type: biochemical; settings: 1 μM inhibitor, 0.1 mM ATP, average of triplicate
[14] = target: MKK1 (Homo sapiens, UniProt Q02750); test: Kinase panel assay, MKK1; assay type: biochemical; settings: 1 μM inhibitor, 0.1 mM ATP, average of triplicate
[15] = target: MAPKAP-K2 (Homo sapiens, UniProt P49137); test: Kinase panel assay, MAPKAP-K2; assay type: biochemical; settings: 1 μM inhibitor, 0.1 mM ATP, average of triplicate
[16] = target: CSK (Homo sapiens, UniProt P41240); test: Kinase panel assay, CSK; assay type: biochemical; settings: 1 μM inhibitor, 0.1 mM ATP, average of triplicate
[17] = target: SAPK4/p38δ (Homo sapiens, UniProt O15264); test: Kinase panel assay, SAPK4/p38δ; assay type: biochemical; settings: 1 μM inhibitor, 0.1 mM ATP, average of triplicate
[18] = target: PRAK (Homo sapiens, UniProt Q8IW41); test: Kinase panel assay, PRAK; assay type: biochemical; settings: 1 μM inhibitor, 0.1 mM ATP, average of triplicate
[19] = target: MAPKAP-K1a (Homo sapiens, UniProt Q15418); test: Kinase panel assay, MAPKAP-K1a; assay type: biochemical; settings: 1 μM inhibitor, 0.1 mM ATP, average of triplicate
[20] = target: SGK1 (Homo sapiens, UniProt O00141); test: Kinase panel assay, SGK1; assay type: biochemical; settings: 1 μM inhibitor, 0.1 mM ATP, average of triplicate
[21] = target: JNKSAPK1c (Homo sapiens, UniProt P45983); test: Kinase panel assay, JNKSAPK1c; assay type: biochemical; settings: 1 μM inhibitor, 0.1 mM ATP, average of triplicate
[22] = target: SAPK2α/p38 (Homo sapiens, UniProt Q16539); test: Kinase panel assay, SAPK2α/p38; assay type: biochemical; settings: 1 μM inhibitor, 0.1 mM ATP, average of triplicate
[23] = target: SAPK2β/p38β2 (Homo sapiens, UniProt Q15759); test: Kinase panel assay, SAPK2β/p38β2; assay type: biochemical; settings: 1 μM inhibitor, 0.1 mM ATP, average of triplicate
[24] = target: CK2 (Homo sapiens, UniProt P68400); test: Kinase panel assay, CK2; assay type: biochemical; settings: 1 μM inhibitor, 0.1 mM ATP, average of triplicate
[25] = system: CK1; test: Kinase panel assay, CK1; assay type: biochemical; settings: 1 μM inhibitor, 0.1 mM ATP, average of triplicate
[26] = target: NEK6 (Homo sapiens, UniProt Q9HC98); test: Kinase panel assay, NEK6; assay type: biochemical; settings: 1 μM inhibitor, 0.1 mM ATP, average of triplicate
[27] = target: T1, PDK1; settings: literature [21]; cited from earlier work
[28] = target: T2, CHK1; settings: literature [20]; cited from earlier work
[29] = target: S6K-pHM, phosphopeptide comprising the hydrophobic motif of S6K1; test: SPR (BiaCore), against wild type PDK1
[30] = target: S6K-pHM, phosphopeptide comprising the hydrophobic motif of S6K1; test: SPR (BiaCore), rounded value
[31] = target: S6K-pHM, phosphopeptide comprising the hydrophobic motif of S6K1; test: SPR (BiaCore), maximal response obtained empirically
[32] = target: S6K-pHM, phosphopeptide comprising the hydrophobic motif of S6K1; test: SPR (BiaCore 3000), biotinylated S6K-pHM on SA chip, GST-PDK1 injected at 2-2150 nM, steady state, apparent Kd
[33] = target: S6K-pHM, phosphopeptide comprising the hydrophobic motif of S6K1; test: SPR (BiaCore), against PIFtide
[34] = target: S6K-pHM, phosphopeptide comprising the hydrophobic motif of S6K1; test: SPR (BiaCore), dissociation phase
[35] = target: T3, wild type PDK1 fused through its N-terminus to glutathione S-transferase (GST-PDK1) (human, UniProt O15530 1-556); test: cell-based or functional assay
T3 sequence: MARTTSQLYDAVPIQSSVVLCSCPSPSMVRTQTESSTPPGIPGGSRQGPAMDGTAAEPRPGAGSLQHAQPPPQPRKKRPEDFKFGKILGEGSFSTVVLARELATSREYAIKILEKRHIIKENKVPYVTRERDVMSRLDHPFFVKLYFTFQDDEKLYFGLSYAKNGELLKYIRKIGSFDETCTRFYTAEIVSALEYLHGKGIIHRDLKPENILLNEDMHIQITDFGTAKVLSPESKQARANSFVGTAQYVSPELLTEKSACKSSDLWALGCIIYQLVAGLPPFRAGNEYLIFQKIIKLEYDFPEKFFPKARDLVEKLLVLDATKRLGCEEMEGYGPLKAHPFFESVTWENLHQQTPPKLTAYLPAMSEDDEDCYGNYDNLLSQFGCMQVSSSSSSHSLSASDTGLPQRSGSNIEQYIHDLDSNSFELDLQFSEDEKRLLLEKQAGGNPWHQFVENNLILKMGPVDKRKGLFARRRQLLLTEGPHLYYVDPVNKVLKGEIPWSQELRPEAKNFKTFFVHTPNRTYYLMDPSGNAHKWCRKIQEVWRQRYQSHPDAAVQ

[36] = target: GST-PDK1[K76A] (human), O15530; test: cell-based or functional assay
[37] = target: GST-PDK1[Q150A] (human), O15530; test: cell-based or functional assay
[38] = target: T3, wild type PDK1 fused through its …; test: SPR (BiaCore), biotinylated peptide on SA chip
Method: Binding was analysed in a BiaCore 3000 system (BiaCore AB, Stevenage, UK). […] 30 μl of wild type or the indicated mutant GST-PDK1 were injected at a flow rate of 30 μl/min, in buffer HBS-P (10 mM HEPES pH 7.4, 0.15M NaCl, 0.005% (by vol) polysorbate-20) supplemented with 1 mM DTT. […] Steady state binding was determined at each concentration. Dissociation of PDK1 from the phospho-peptide was monitored over a 1 min period. Regeneration of the sensor chip surface was performed with 10 μl injections of 0.05% SDS.

Chain of SGK1 (O00141 whole entry): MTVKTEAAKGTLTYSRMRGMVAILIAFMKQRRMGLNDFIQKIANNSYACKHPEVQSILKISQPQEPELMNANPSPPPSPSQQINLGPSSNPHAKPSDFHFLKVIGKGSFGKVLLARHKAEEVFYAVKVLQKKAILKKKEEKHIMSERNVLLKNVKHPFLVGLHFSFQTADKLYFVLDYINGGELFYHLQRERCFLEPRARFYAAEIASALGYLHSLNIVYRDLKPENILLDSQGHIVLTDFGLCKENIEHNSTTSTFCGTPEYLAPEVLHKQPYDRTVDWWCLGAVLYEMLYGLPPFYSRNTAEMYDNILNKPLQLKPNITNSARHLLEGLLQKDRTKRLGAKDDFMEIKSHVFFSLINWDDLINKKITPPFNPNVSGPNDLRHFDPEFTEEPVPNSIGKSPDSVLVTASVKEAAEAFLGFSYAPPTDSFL
Chain of MSK1 (O75582 whole entry): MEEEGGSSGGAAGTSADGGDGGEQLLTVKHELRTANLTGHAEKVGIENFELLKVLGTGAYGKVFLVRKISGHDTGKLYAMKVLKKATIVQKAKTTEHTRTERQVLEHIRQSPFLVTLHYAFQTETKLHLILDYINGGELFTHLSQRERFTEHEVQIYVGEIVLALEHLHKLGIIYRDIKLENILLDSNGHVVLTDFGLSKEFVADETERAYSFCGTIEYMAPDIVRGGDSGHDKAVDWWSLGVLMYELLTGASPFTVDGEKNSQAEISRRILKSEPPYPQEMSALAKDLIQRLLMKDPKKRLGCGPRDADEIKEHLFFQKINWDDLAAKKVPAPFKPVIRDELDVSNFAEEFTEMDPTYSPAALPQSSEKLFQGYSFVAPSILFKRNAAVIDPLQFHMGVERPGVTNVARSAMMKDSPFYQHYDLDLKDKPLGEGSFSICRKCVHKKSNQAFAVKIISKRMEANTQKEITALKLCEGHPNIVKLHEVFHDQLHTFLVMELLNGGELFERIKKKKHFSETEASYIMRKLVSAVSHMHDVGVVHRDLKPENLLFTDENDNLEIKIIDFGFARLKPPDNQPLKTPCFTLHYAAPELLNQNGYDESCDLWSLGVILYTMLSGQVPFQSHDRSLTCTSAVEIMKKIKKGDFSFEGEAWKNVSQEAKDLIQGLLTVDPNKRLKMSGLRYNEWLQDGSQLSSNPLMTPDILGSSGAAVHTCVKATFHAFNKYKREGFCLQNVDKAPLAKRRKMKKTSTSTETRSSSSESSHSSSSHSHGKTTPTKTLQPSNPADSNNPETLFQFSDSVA
Chain of S6K1 (P23443 whole entry): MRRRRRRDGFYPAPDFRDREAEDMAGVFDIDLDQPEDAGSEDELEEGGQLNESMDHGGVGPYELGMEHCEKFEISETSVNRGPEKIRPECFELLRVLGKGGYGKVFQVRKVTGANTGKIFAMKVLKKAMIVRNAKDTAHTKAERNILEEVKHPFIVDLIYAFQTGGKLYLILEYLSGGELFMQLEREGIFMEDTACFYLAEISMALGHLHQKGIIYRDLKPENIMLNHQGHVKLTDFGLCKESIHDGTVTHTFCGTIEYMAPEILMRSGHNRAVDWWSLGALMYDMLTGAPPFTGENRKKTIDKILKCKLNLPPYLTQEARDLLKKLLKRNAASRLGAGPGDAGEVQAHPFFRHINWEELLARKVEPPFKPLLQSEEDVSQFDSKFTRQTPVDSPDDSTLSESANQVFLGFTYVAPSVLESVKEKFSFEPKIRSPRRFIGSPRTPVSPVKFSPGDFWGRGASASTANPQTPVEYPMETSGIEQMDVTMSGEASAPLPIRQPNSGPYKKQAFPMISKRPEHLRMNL
Chain of PKBΔPH (P31749 118-480 limits assumed, stated change not applied): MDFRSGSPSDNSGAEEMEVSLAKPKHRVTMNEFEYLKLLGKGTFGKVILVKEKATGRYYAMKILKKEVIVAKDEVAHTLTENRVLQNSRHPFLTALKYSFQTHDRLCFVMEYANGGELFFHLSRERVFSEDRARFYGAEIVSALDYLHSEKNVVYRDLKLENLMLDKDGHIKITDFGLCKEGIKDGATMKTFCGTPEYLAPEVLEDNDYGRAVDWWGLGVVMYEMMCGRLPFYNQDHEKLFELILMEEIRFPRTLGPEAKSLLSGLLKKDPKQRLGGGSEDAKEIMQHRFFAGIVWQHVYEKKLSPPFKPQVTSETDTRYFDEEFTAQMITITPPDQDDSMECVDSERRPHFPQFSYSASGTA
Chain of JNKSAPK1c (P45983 whole entry): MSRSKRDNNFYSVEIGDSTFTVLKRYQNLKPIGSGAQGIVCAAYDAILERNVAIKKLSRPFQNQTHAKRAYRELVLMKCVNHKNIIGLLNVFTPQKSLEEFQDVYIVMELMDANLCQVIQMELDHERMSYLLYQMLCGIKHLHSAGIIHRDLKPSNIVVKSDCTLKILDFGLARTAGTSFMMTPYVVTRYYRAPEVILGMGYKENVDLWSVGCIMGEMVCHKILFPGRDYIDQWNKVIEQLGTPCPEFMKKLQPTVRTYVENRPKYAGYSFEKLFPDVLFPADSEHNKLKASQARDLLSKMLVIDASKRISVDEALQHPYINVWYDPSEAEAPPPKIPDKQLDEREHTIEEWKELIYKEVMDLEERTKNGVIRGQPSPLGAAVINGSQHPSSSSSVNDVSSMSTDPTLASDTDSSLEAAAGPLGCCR
Chain of PRAK (Q8IW41 whole entry, species assumed): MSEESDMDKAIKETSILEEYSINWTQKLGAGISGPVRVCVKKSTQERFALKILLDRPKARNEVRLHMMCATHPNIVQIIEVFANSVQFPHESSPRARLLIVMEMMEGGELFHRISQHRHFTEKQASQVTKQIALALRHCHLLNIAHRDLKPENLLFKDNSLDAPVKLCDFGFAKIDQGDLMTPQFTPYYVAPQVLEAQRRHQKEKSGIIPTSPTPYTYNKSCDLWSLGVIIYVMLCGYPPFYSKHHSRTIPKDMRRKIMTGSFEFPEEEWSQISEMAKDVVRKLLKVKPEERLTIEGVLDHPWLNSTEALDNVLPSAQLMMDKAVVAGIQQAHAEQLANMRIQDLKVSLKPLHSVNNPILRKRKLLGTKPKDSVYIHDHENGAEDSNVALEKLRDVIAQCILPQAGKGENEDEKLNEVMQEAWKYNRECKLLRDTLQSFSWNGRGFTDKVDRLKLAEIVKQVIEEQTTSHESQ
Chain of MKK1 (Q02750 whole entry, species assumed): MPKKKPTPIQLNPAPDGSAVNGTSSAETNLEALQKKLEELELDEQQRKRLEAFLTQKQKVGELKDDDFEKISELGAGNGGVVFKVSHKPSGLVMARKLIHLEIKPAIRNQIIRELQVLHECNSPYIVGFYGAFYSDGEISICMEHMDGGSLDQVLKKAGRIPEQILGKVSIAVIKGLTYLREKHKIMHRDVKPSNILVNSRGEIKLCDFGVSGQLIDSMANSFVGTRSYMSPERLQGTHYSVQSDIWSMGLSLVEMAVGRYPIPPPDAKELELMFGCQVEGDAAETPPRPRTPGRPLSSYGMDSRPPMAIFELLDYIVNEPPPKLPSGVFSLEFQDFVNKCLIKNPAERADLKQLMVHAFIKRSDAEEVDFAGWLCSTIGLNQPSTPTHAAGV
Chain of CSK (P41240 whole entry, species assumed): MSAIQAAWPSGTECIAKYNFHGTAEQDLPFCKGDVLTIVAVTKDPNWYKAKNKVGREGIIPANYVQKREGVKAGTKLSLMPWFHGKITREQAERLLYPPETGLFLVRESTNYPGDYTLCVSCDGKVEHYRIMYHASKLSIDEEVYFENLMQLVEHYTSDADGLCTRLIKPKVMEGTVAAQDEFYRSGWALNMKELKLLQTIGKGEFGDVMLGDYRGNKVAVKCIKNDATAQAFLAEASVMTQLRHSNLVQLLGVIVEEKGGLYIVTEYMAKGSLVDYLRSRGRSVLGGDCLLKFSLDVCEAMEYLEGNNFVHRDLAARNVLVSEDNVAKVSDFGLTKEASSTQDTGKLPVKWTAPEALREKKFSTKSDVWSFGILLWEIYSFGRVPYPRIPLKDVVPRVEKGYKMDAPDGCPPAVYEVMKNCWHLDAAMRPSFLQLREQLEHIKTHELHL
Chain of SAPK4/p38δ (O15264 whole entry): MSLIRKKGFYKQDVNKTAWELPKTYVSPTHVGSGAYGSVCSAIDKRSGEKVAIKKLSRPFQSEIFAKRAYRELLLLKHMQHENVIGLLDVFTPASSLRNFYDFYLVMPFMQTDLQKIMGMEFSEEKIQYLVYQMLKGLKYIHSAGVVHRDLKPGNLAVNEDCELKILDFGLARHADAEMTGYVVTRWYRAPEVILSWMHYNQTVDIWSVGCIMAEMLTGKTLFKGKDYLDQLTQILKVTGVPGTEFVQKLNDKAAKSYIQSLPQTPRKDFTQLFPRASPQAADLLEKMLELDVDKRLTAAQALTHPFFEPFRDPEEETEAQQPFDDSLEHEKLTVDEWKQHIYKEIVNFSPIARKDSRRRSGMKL
Chain of MAPKAP-K2 (P49137 whole entry, species assumed): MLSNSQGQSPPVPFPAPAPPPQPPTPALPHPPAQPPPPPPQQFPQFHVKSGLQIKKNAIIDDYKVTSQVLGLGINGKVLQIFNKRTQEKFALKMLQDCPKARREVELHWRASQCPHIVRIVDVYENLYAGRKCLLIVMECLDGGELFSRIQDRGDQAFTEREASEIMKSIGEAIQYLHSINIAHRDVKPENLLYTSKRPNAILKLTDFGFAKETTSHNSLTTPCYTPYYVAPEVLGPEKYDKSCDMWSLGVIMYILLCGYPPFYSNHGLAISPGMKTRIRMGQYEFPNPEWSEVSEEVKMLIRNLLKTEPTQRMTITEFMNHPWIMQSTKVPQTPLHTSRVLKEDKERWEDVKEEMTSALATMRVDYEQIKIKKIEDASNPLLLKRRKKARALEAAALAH
Chain of NEK6 (Q9HC98 whole entry, species assumed): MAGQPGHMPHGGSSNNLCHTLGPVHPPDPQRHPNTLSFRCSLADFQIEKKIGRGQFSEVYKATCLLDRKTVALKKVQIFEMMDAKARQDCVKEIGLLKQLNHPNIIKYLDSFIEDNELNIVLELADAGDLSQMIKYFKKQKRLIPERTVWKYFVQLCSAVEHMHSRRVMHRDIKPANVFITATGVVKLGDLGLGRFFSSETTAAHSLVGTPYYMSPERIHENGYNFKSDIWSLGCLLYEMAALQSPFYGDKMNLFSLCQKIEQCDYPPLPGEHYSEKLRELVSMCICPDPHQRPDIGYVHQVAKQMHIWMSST

CN[C@@H]1C[C@H]2O[C@@](C)([C@@H]1OC)n1c3ccccc3c3c4c(c5c6ccccc6n2c5c31)C(=O)N[C@H]4O [UCN-01, 7-hydroxyl staurosporine]
percentage of kinase activity compared to control incubations, PDK1 [1]: 0 ± 1% | percentage of kinase activity compared to control incubations, CHK1 [2]: 1 ± 0% | percentage of kinase activity compared to control incubations, PKCα [3]: 1 ± 0% | percentage of kinase activity compared to control incubations, AMPK [4]: 1 ± 1% | percentage of kinase activity compared to control incubations, PHOS.KINASE [5]: 1 ± 2% | percentage of kinase activity compared to control incubations, Lck [6]: 3 ± 1% | remaining activity at 1 µM [7]: 9 ± 1% | percentage of kinase activity compared to control incubations, ROCK-II [8]: 13 ± 2% | percentage of kinase activity compared to control incubations, S6K1 [9]: 21 ± 4% | percentage of kinase activity compared to control incubations, GSK3β [10]: 25 ± 5% | percentage of kinase activity compared to control incubations, MSK1 [11]: 11% and 11 ± 0% | percentage of kinase activity compared to control incubations, DYRK1α [12]: 15 ± 2% | percentage of kinase activity compared to control incubations, PKA [13]: 27 ± 2% | percentage of kinase activity compared to control incubations, MKK1 [14]: 53 ± 1% | percentage of kinase activity compared to control incubations, MAPKAP-K2 [15]: 60 ± 1% | percentage of kinase activity compared to control incubations, CSK [16]: 58 ± 3% | percentage of kinase activity compared to control incubations, SAPK4/p38δ [17]: 100 ± 7% | percentage of kinase activity compared to control incubations, PRAK [18]: 89 ± 4% | percentage of kinase activity compared to control incubations, MAPKAP-K1a [19]: 1 ± 1% | percentage of kinase activity compared to control incubations, SGK1 [20]: 25% and 22 ± 4% | percentage of kinase activity compared to control incubations, JNKSAPK1c [21]: 112 ± 6% | percentage of kinase activity compared to control incubations, SAPK2α/p38 [22]: 107 ± 5% | percentage of kinase activity compared to control incubations, SAPK2β/p38β2 [23]: 106 ± 4% | percentage of kinase activity compared to control incubations, CK2 [24]: 102 ± 11% | percentage of kinase activity compared to control incubations, CK1 [25]: 96 ± 0% | percentage of kinase activity compared to control incubations, NEK6 [26]: 80 ± 7% | inhibition of PDK1, recent reports [27]: low nM range | inhibition of Chk1, recent reports [28]: low nM range

GST-PDK1[T148A] (from UniProt O15530 1-556) (enzyme)
fold higher affinity than wild type PDK1 [29]: 10 fold | Kd [30]: 60 nM | RUmax [31]: 435 RU | Kd [32]: 64 nM

wild type PDK1 fused through its N-terminus to glutathione S-transferase (GST-PDK1) (from UniProt O15530 1-556) (enzyme)
fold lower affinity than for PIFtide [33]: 100 fold | time taken for 50% dissociation [34]: 30 s | Kd [30]: 600 nM | Kd [32]: 642 nM

B1: S6K-pHM, phosphopeptide comprising the hydrophobic motif of S6K1 (peptide)
peptide: SESANQVFLGF[pT]YVAPSV
modifications: not fully specified; printed as SESANQVFLGFT*YVAPSV
maximal activation of PDK1 activity towards T308tide [35]: 5 fold | concentration of S6K-pHM for half maximal activation, against wild type PDK1 (fold higher than wild type PDK1) [36]: 3 | activation of PDK1 activity towards T308tide [37]: 2 fold and 3 fold

B2: S6K-HM, non-phosphorylated peptide comprising the hydrophobic motif of S6K1 (peptide)
peptide: SESANQVFLGFTYVAPSV
modifications: also: biotinylated in BiaCore assay
notes: also called 56K-HM
activation of PDK1 activity towards T308tide [35]: < 2 fold | binding result [38]: no binding (tested: 2-2150 nM)
